The record followed here is publication doi:10.1101/2024.05.29.596450v1 (biorxiv, 2024).

For this assay, the system named is Staphylococcus aureus MRSA (ATCC BAA-44). The experiment in a line: microbe, parasite or virus in culture. On the set-up: species or system Staphylococcus aureus ATCC BAA-44. The note with it: ATCCBAA44|MRSA, 18 h, read-out: %viability.

Molecules are shown by their SMILES.

As a reminder, the viability is a per cent measure of how many cells are alive, often set against a control.

Consider `CC1(C)S[C@@H]2[C@H](NC(=O)[C@H](N)c3ccc(O)cc3)C(=O)N2[C@H]1C(=O)O` [Amoxicillin], for which the viability at 50 µM came to 85%.
